Assay results as given in patent publication EP0187551A1, “Pyrazolo[4,3-c]cinnolin-3-one derivatives, their salts, preparation process, use as medicaments, compositions containing them and intermediate products” (ROUSSEL-UCLAF, priority 1985, dated 1986).

Tests used:
[1] = system: rats; test: Staircase test (test de l'escalier); assay type: in vivo; settings: 20 mg/Kg, 1 h after administration, counted for 3 min
Text: L'appareil et le protocole utilisés ont été décrits par THIEBOT et coll. (Psychopharmacologia (Berlin) 1973, 31, 77).
L'expérimentation est réalisée sur des lots de 15 rats naifs. Les animaux sont déposés individuellement dans l'enceinte 1 heure après l'administration du composé étudié. Le nombre de redressements effectués et le nombre de marches montées sont comptés pendant 3 mn.

[2] = system: rats; test: Four-plate test (test des 4 plaques), rats; assay type: in vivo; settings: 20 mg/Kg per os, 1/2 h after administration
Procedure: (§1) L'appareil (Apelab) et le protocole utilisés ont été décrits par BOISSIER et coll. (European J. Pharmacol. 1968, 4, 145). Les plaques sont reliées à un stimulateur (U. Sachs, Roucaire) qui permet de délivrer des chocs électriques de 120 volts pendant 0,5 s. Les essais sont réalisés sur des lots de 10 souris ou rats 1/2 h après administration per os du composé étudié. Chaque animal est déposé individuellement sur l'appareil. Après 15s d'exploration libre , il est soumis à un choc électrique chaque fois qu'il passe d'une plaque à l'autre, un minimum de 3 secondes étant observé entre deux chocs. Le nombre de chocs délivrés est compté pendant 1 minute. Les résultats obtenus sont comparés à ceux observés chez des animaux témoins par un test de Dunnett.

[3] = system: souris; test: Four-plate test (test des 4 plaques), mice; assay type: in vivo; settings: 1/2 h after administration
Procedure: as §1

[4] = target: récepteurs des benzodiazépines; test: Affinity for benzodiazepine receptors (displacement of 3H diazepam, rat cortex membranes); set-up: species or system rats; settings: concentration inhibiting 50 % of specific 3H diazepam (10^-9M) binding, 30 min at 0°C, read-out: CI 50 (the source's name)
Procedure: 1) Affinité pour les récepteurs des benzodiazépines.
On homogénéise au vingtième (poids/volume) dans le sucrose 0,32M, les cortex prélevés sur des cerveaux de rats mâles pesant 150 g en moyenne.
Après centrifugation de l'homogénat à 1000 g pendant 10 minutes à 0°C, le surnageant est centrifugé à 30 000 g pendant 20 minutes à +4"C. Le culot est mis en suspension dans 20 volumes de tampon Tris Hcl 50mM pH 7,4 et centrifugé à 30 000 g pendant 20 minutes à +4°c. Le nouveau culot obtenu est mis en suspension dans 50 ml de tampon Krebs Tris HCl pH 7,4.
On fait ensuite incuber pendant 30 minutes à 0°C, 2 ml de suspension en présence de ^3H diazepam à la concentration 10-^9M, seul, avec des concentrations croissantes du produit à tester, ou, pour déterminer la fixation non spécifique, avec du diazepam non radioactif à la concentration 10^-6M.
Les suspensions incubées sont filtrées sur Whatman GF/C et les filtres sont lavés par deux fois 5 ml de tampon Krebs Tris HCl pH 7,4 à 0°C.
La radioactivité des filtres est mesurée par scintillation liquide.
L'activité du produit est exprimée en C. I. 50 : concentration inhibant 50 % de la liaison spécifique de ^3H diazepam déterminée graphiquement.

O=c1c2n[nH]c3ccc(Cl)cc3c-2nn1-c1ccccc1 [Exemple 1, 8-chloro-2,5-dihydro-2-phényl 3H-pyrazolo/4,3-c/ cinnolin-3-one]
diminution du nombre de redressements [1]: 46%
nombre de marches montées [1]: sans modification notable
augmentation du nombre de chocs délivrés [2]: 41%
augmentation du nombre de chocs délivrés ([3]; 20 mg/Kg per os): 63%
IC50 [4]: 1.4 nM

O=c1c2n[nH]c3ccccc3c-2nn1-c1ccccc1 [Exemple 3, 2,5-dihydro-2-phényl 3H-pyrazolo/4,3-c/ cinnolin-3-one]
augmentation du nombre de chocs ([3]; 50 mg/kg per os): 50%

O=c1c2n[nH]c3ccccc3c-2nn1-c1ccccn1 [Exemple 8, Chlorhydrate du 2,5-dihydro-(2-pyridin-2-yl) 3H-pyrazolo /4,3-c/ cinnolin-3-one]
augmentation du nombre de chocs ([3]; 100 mg/kg per os): 50%
